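Tested at 5 concentrations; 48 h exposure; 96-well plates; endpoints linearly interpolated, else capped at highest concentration. GI50 is the concentration that inhibits growth by half.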 Active and inactive are the calls of the source. Cut-off read from the data, not from the text of the source: active = GI50 up to about 1.1 µM and inactive = higher. Where a SMILES comes first, the peptide text is derived from it. [ ]: non-standard residue; d: D form. The star is where a group is joined. ξ: configuration not given here. ξF = NC(Cc1ccccc1)C(=O)O; Cbz = O=C(OCc1ccccc1)*; Aib = CC(C)(N)C(=O)O
Assays:
Test in all cases: growth of human tumour cells (NCI), 48 h
[1] = test system: CCRF-CEM
[2] = test system: DMS-273
[3] = test system: NCI-H226
[4] = test system: OVCAR-4
[5] = test system: RXF 393
[6] = test system: SF-539
[7] = test system: SK-MEL-5
[8] = test system: SN12C
[9] = test system: SNB-78
[10] = test system: TK-10
[11] = test system: XF498
[12] = test system: BT-549
[13] = test system: DU-145
[14] = test system: KM12
[15] = test system: MDA-MB-435
[16] = test system: MDA-N
[17] = test system: PC-3
[18] = test system: A498
[19] = test system: NCI-H522
[20] = test system: SK-MEL-2

Measured: GI50

Cc1cccc2c1Sc1ccccc1C2NC(=O)CN(C)C (stereo unspecified)
inactive: [1] > 100 µM | [2] > 100 µM | [3] > 100 µM | [4] > 100 µM | [5] 53.6 µM | [6] > 100 µM | [7] 36.1 µM | [8] 81.5 µM | [9] > 100 µM | [10] > 100 µM | [11] > 100 µM

Nc1nc(=S)[nH]c2nc3c(c(-c4ccccc4)c12)CCCC3
inactive: [12] > 100 µM | [1] > 10 µM | [13] > 100 µM | [14] > 100 µM | [15] > 100 µM | [16] > 100 µM | [4] > 100 µM | [17] > 100 µM | [6] 71.6 µM | [7] > 100 µM | [8] 67.8 µM | [10] > 100 µM

COC1CCC(OS(C)(=O)=O)CO1 (stereo unspecified)
inactive: [18] > 100 µM | [1] 22.5 µM | [14] > 100 µM | [19] > 100 µM | [4] > 100 µM | [5] > 100 µM | [6] > 100 µM | [20] > 100 µM | [9] > 100 µM

CC1(C)CC23C4COC(=O)C2CCC1C3CC4=O (stereo unspecified)
inactive: [18] 5.92 µM | [1] 2.37 µM | [2] 19.9 µM | [14] 12.6 µM | [3] 6.59 µM | [19] 3.32 µM | [4] 15.2 µM | [5] 1.71 µM | [6] 19.5 µM | [20] 14.5 µM | [7] 9.86 µM | [8] 15.8 µM | [9] 15 µM | [11] 13.7 µM

C=CC(Br)(CBr)CCC(Cl)C(C)C (stereo unspecified)
inactive: [18] 13.7 µM | [12] 1.6 µM | [13] 2.72 µM | [14] 1.47 µM | [15] 1.82 µM | [16] 1.45 µM | [3] 7.28 µM | [19] 1.42 µM | [4] 1.49 µM | [17] 3.45 µM | [5] 1.6 µM | [6] 2.31 µM | [20] 1.92 µM | [7] 1.85 µM | [8] 1.73 µM | [10] 1.88 µM
active: [1] 0.364 µM

CC(C)=CCC/C(C)=C/CC/C(C)=C/CC/C(=C/CC/C(C)=C\CC/C(C)=C/CC/C(C)=C/CC/C(C)=C/Cc1cc(O)ccc1O)CO
inactive: [18] 5.33 µM | [12] 3.6 µM | [1] 3.56 µM | [13] 32.6 µM | [14] 1.67 µM | [16] 3.21 µM | [3] 2.29 µM | [19] 1.57 µM | [4] 2.51 µM | [17] 4.2 µM | [20] 3.32 µM | [7] 2.48 µM | [8] 17.6 µM | [10] 6.61 µM
active: [15] 1.12 µM | [5] 0.483 µM | [6] 0.824 µM

NC(=O)OCC1=C(COC(N)=O)C(=O)c2c(O)ccc(O)c2C1=O
inactive: [18] > 100 µM | [1] 44.7 µM | [2] > 100 µM | [14] > 100 µM | [3] > 100 µM | [19] > 100 µM | [4] > 100 µM | [6] > 100 µM | [20] 78.7 µM | [7] 48 µM | [8] > 100 µM | [9] > 100 µM | [10] > 100 µM

O=C(NCCCNC(=O)c1ccc2cc(O)c(O)cc2c1)c1ccc2cc(O)c(O)cc2c1
inactive: [18] 63.4 µM | [12] 26.9 µM | [1] 27.1 µM | [13] 26.7 µM | [14] 37.9 µM | [15] 32.4 µM | [16] 31.7 µM | [3] 18.4 µM | [19] 29.6 µM | [4] 16.7 µM | [17] 27.4 µM | [5] 24.7 µM | [6] 16.5 µM | [20] 13.1 µM | [7] 22.8 µM | [10] 37.9 µM

O=c1c2cc(I)ccc2nc(-c2cccs2)n1Nc1ccccc1
inactive: [12] 3.14 µM | [14] 4.14 µM | [3] 14.1 µM | [4] 3.06 µM | [17] 1.61 µM | [5] 39.3 µM | [6] 33.5 µM | [7] 6.79 µM | [8] 46.8 µM
active: [15] 0.649 µM | [19] 0.849 µM | [20] 0.33 µM

COC(=O)C(C)(C)NC(=O)C(Cc1ccccc1)NC(=O)C(C)(C)NC(=O)OCc1ccccc1 (stereo unspecified) (Cbz-[Aib]-[ξF]-[Aib]-OMe)
inactive: [18] 24.3 µM | [1] > 100 µM | [13] > 100 µM | [15] > 100 µM | [16] > 100 µM | [19] > 100 µM | [4] > 100 µM | [17] > 100 µM | [7] > 100 µM | [10] > 100 µM
